Like-named read-outs stand apart in the source and are kept apart here.
How the values were obtained:
[1] = molecular target: fusion of mutant FKBP12 to nanoluciferase (Homo sapiens (Human), UniProt P62942+Q96SW2, F36V); experiment: FKBP Dual Luciferase Assay (mutant FKBP12, 36V); format: cell-based; conditions: for Dmax: read-out: Max Degradation (dual luciferase, %) FKBP 36V;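 for all read-outs here: cells exposed to rising degrader concentrations, FKBP12 fusion level read as NLuc/FLuc signal ratio, lower ratio means more degradation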
Protocol: The cells were treated with increasing concentrations of various dFKBPs for 4 hours. The amount of NLuc and FLuc was measured, and the abundance of the FKBP12-HA-NLuc was quantified by calculating the signal ratio of NLuc/FLuc.

CRBN-DDB1/BRD4 = CRBN-DDB1/BRD4 (Homo sapiens (Human), UniProt O60885+Q96SW2); experiment: CRBN-DDB1/BRD4 Dimerization Assay; format: binding; conditions: for Dimer Amplitude / Dimer Mean: Gaussian fit of dimerization signal; for Dimer SD: Gaussian fit parameter of dimerization signal;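 for all read-outs here: AlphaScreen proximity signal between GST-tagged BRD4 and CRBN-DDB1 with glutathione donor and nickel chelate acceptor beads, read after 1 hr compound incubation at room temperature, values from Gaussian curve fit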
[2] = molecular target: IKZF1 adjoined to nanoluciferase (Nluc) (Homo sapiens (Human), UniProt Q13422); experiment: IKZF1 Dual Luciferase Assay; format: cell-based; conditions: 4 hours; read-out: Nluc/Fluc IKZF1 IC50
Protocol: Transduced cells were selected with puromycin at 2 μg/mL and expanded. […] Cells were incubated with compound for 4 hours at 37° C., 5% CO2 and then allowed to cool to room temperature. To each plate was added 25 μL of Fluc buffer (200 mM Tris, 15 mM MgSO4, 100 uM EDTA, 1 mM DTT, 1 mM ATP, 200 uM Coenzyme A, 400 uM D-Luciferin, 0.1% Trition X-100).

[3] = FKBP 36V, 4 hours, read-out: DC50 (nM) FKBP 36V

Question: Which DC50 [1, 3] does the source give for CC[C@H](C(=O)N1CCCC[C@H]1C(=O)O[C@H](CCc1ccc(OC)c(OC)c1)c1cccc(OCC(=O)NCCOCCOCCOc2cccc3c2C(=O)N(C2CCC(=O)NC2=O)C3=O)c1)c1cc(OC)c(OC)c(OC)c1 (stereo partly drawn) [dFKBP*-15] here?
Answer: 28 nM

Question: What about the Dmax ([1]; FKBP 36V, 4 hours) of the same molecule?
Answer: 66%

Question: What does the source list for Cc1sc2c(c1C)C(c1ccc(Cl)cc1)=N[C@@H](CC(=O)NCCCOCCOCCOCCCNC(=O)COc1cccc3c1C(=O)N(C1CCC(=O)NC1=O)C3=O)c1nnc(C)n1-2 (stereo partly drawn) [dBET9]?
Answer: Dimer Amplitude (CRBN-DDB1/BRD4): 16889; Dimer Mean (CRBN-DDB1/BRD4): −7.496; Dimer SD (CRBN-DDB1/BRD4): 0.5198

Question: Which DC50 [1, 3] does the source give for CC[C@H](C(=O)N1CCCC[C@H]1C(=O)OC(CCc1ccc(OC)c(OC)c1)c1cccc(OCC(=O)NCc2ccc(CNC(=O)COc3cccc4c3C(=O)N(C3CCC(=O)NC3=O)C4=O)cc2)c1)c1cc(OC)c(OC)c(OC)c1 (stereo partly drawn) [dFKBP*-21] here?
Answer: 15 nM

Question: And the Dmax ([1]; FKBP 36V, 4 hours)?
Answer: 91%

Question: For CC[C@@H]1C(=O)N(C)c2cnc(Nc3ccc(C(=O)NCCCCNC(=O)COc4cccc5c4C(=O)N(C4CCC(=O)NC4=O)C5=O)cc3OC)nc2N1C1CCCC1 (stereo partly drawn) [dBET2], which “Dimer Amplitude” value (CRBN-DDB1/BRD4) is on record?
Answer: 20549

Question: What about the “Dimer Mean” value (CRBN-DDB1/BRD4) of the same molecule?
Answer: −7.428

Question: And the “Dimer SD” value (CRBN-DDB1/BRD4)?
Answer: 0.7005

Question: Which DC50 [2] does the source give for CC(C)Nc1ccc2c(c1)C(=O)N(C1CCC(=O)NC1=O)C2=O [Compound D-26, 2-(2,6-dioxopiperidin-3-yl)-5-(isopropylamino)isoindoline-1,3-dione] here?
Answer: > 50000 nM

Question: With CCN(CC)c1cccc2c1C(=O)N(C1CCC(=O)NC1=O)C2=O [Compound D-21, 4-(diethylamino)-2-(2,6-dioxopiperidin-3-yl)isoindoline-1,3-dione] as the molecule, how does the DC50 [2] read?
Answer: 140 nM

Question: For CC[C@H](C(=O)N1CCCC[C@H]1C(=O)O[C@H](CCc1ccc(OC)c(OC)c1)c1cccc(OCC(=O)NCCCCCCCCNC(=O)COc2cccc3c2C(=O)N(C2CCC(=O)NC2=O)C3=O)c1)c1cc(OC)c(OC)c(OC)c1 (stereo partly drawn) [c1FKBP*-9], which DC50 ([1]; read-out: DC50 (nM) FKBP 36V, 4 hours) is on record?
Answer: 3.9 nM

Question: Which DC50 [1, 3] does the source give for CC[C@H](C(=O)N1CCCC[C@H]1C(=O)OC(CCc1ccc(OC)c(OC)c1)c1cccc(OCC(=O)NCCCCCCOc2cccc3c2C(=O)N(C2CCC(=O)NC2=O)C3=O)c1)c1cc(OC)c(OC)c(OC)c1 (stereo partly drawn) [dFKBP*-13] here?
Answer: 1.2 nM

Question: And the Dmax ([1]; FKBP 36V, 4 hours)?
Answer: 83%

Question: Which results are given for CC[C@H](C(=O)N1CCCC[C@H]1C(=O)OC(CCc1ccc(OC)c(OC)c1)c1cccc(OCC(=O)NCCCCOc2cccc3c2C(=O)N(C2CCC(=O)NC2=O)C3=O)c1)c1cc(OC)c(OC)c(OC)c1 (stereo partly drawn) [dFKBP*-18]?
Answer: DC50 [1, 3]: 6.4 nM; Dmax ([1]; FKBP 36V, 4 hours): 80%

Question: CC[C@H](C(=O)N1CCCC[C@H]1C(=O)O[C@H](CCc1ccc(OC)c(OC)c1)c1cccc(OCC(=O)NCCOCCOc2cccc3c2C(=O)N(C2CCC(=O)NC2=O)C3=O)c1)c1cc(OC)c(OC)c(OC)c1 (stereo partly drawn) [dFKBP*-19] was tested. Which DC50 [1, 3] did it give?
Answer: 1.7 nM

Question: And the Dmax ([1]; FKBP 36V, 4 hours)?
Answer: 94%

Question: Which results are given for CC[C@H](C(=O)N1CCCC[C@H]1C(=O)OC(CCc1ccc(OC)c(OC)c1)c1cccc(OCC(=O)NCCCOCCCNC(=O)COc2cccc3c2C(=O)N(C2CCC(=O)NC2=O)C3=O)c1)c1cc(OC)c(OC)c(OC)c1 (stereo partly drawn) [dFKBP*-17]?
Answer: DC50 [1, 3]: 69 nM; Dmax ([1]; FKBP 36V, 4 hours): 64%

Question: With CC[C@H](C(=O)N1CCCC[C@H]1C(=O)OC(CCc1ccc(OC)c(OC)c1)c1cccc(OCC(=O)NCCCCC(=O)Nc2cccc3c2C(=O)N(C2CCC(=O)NC2=O)C3=O)c1)c1cc(OC)c(OC)c(OC)c1 (stereo partly drawn) [dFKBP*-16] as the molecule, how does the DC50 [1, 3] read?
Answer: 99 nM

Question: What about the Dmax ([1]; FKBP 36V, 4 hours) of the same molecule?
Answer: 38%

Question: Which results are given for CC[C@H](C(=O)N1CCCC[C@H]1C(=O)OC(CCc1ccc(OC)c(OC)c1)c1cccc(OCC(=O)NCCCCCCCC(=O)Nc2cccc3c2C(=O)N(C2CCC(=O)NC2=O)C3=O)c1)c1cc(OC)c(OC)c(OC)c1 (stereo partly drawn) [dFKBP*-20]?
Answer: DC50 [1, 3]: 17 nM; Dmax ([1]; FKBP 36V, 4 hours): 75.7%

Question: Which results are given for Cc1sc2c(c1C)C(c1ccc(Cl)cc1)=N[C@@H](CC(=O)NCCCCCCCCOc1cccc3c1C(=O)N(C1CCC(=O)NC1=O)C3=O)c1nnc(C)n1-2 (stereo partly drawn) [dBET21]?
Answer: Dimer Amplitude (CRBN-DDB1/BRD4): 758.9; Dimer Mean (CRBN-DDB1/BRD4): −6.306; Dimer SD (CRBN-DDB1/BRD4): 1.327

Question: For CC[C@H](C(=O)N1CCCC[C@H]1C(=O)OC(CCc1ccc(OC)c(OC)c1)c1cccc(OCC(=O)NCCCCCCCCCCOc2cccc3c2C(=O)N(C2CCC(=O)NC2=O)C3=O)c1)c1cc(OC)c(OC)c(OC)c1 (stereo partly drawn) [dFKBP*-14], which DC50 [1, 3] is on record?
Answer: 57 nM

Question: What about the Dmax ([1]; FKBP 36V, 4 hours) of the same molecule?
Answer: 85%

Source: patent publication US11059801B2, “Methods to induce targeted protein degradation through bifunctional molecules” (Dana-Farber Cancer Institute, Inc., priority 2014, dated 2021)
